Tests used:
[1] = tested on: Beta-2 Adrenergic Receptor-Nluc (B2AR-Nluc) fusion protein; experiment: Cell permeability, B2AR-Nluc in HEK293 -/+ digitonin; assay type: cell-based; conditions: HEK293 B2AR-Nluc -/+ 50 μg/mL digitonin; up to 2 hrs
Experimental: HEK293 were transiently transfected with Beta-2 Adrenergic Receptor-Nluc (B2AR-Nluc) fusion protein to anchor and orient Nluc cytosolically and pGEM-3z carrier DNA (1:100). 24 hrs post-transfection, cells were treated with −/+50 μg/mL digitonin to emulate a live and lytic scenario, respectively. Then, intact cells and permeabilized cells were exposed to a compound response curve of thienopyrrole compound up to 2 hrs. 10 μM furimazine (Promega Corp.) was added, and luminescence was measured. If a thienopyrrole compound (inhibitor) was permeable, the dose-response curves for both live and permeabilized cells overlapped. However, if a thienopyrrole compound was impermeable, the EC50 was right-shifted in the live cells relative to the permeabilized cells.

Nluc [2] = target: T1, Nluc (Oplophorus gracilirostris, UniProt Q9GV45, A31E/A60N/A81I/F95D/I117V/K70R/L54V/L99Q/M102K/N193R/P142E/Q151K/Q38R/Q45L/V71I/Y165I); experiment: Multiplex RealTime-Glo / Caspase-Glo 3/7 in A549 cells; assay type: cell-based; design: purchased Promega Corporation; conditions: final, 1 hr
Experimental: B) A549 cells were plated at 1,000 cells/well in 20 μL F12K media into wells of a Corning 3570 plate (n-4) and incubated overnight. Then, REALTIME-GLO™ MT Cell Viability assay reagents (Promega Corporation) were added to the wells as a 2× solution in 20 μL media. The reaction was incubated for 1 hr. 40 μL of a titration of JRW-0013 or JRW-0147 in CASPASE-GLO® 3/7 assay reagent (Promega Corporation) at 2× concentrations was added. The reactions were incubated at RT, and luminescence was determined at 1 hr.

UltraGlo luciferase = experiment: Specificity of inhibition of Nluc luciferase: UltraGlo luciferase; assay type: biochemical, firefly; conditions: RT 2 hrs
Experimental: The following example describes the specificity of disclosed thienopyrrole compounds, JRW-0251, JRW-0344, and JRW-0147, to inhibit Nluc luciferase activity versus firefly luciferase activity, e.g., ULTRAGLO® luciferase. In a Corning 3570 assay plate, a solution containing 1 μM luciferin in Luciferase Detection Reagent (Promega Corporation V865/859) was added to the assay wells. An equal volume of titrations the thienopyrrole compounds, JRW-0251, JRW-0344, and JRW-0147 were then added to the wells. The reactions were incubated at RT for 2 hrs, and luminescence was measured on Tecan M1000 Pro plate reader.

[3] = tested on: Nluc-ADRB2 (extracellular Nluc) or ADRB2-Nluc (intracellular Nluc); experiment: Cell permeability with bioluminescent imaging (HeLa, Nluc-ADRB2 / ADRB2-Nluc); assay type: cell-based; conditions: 30 μM compound, 10 μM furimazine
Experimental: HeLa cells were transiently transfected with Nluc-ADRB2 (extracellular Nluc) or ADRB2-Nluc (intracellular Nluc) to anchor and orient Nluc extracellularly or intracellularly, respectively. 24 hrs post-transfection, cells were treated with −/+30 μM of a thienopyrrole compound, JRW-0147, JRW-0013, and JRW-0344. 10 μM furimazine was added, and luminescence was detected by imaging on the Olympus LV200.

NANOLUC® enzyme = NANOLUC® enzyme (Oplophorus gracilirostris, UniProt Q9GV45, A31E/A60N/A81I/F95D/I117V/K70R/L54V/L99Q/M102K/N193R/P142E/Q151K/Q38R/Q45L/V71I/Y165I); experiment: Inhibitor IC50 determination (NANOLUC enzyme, furimazine); assay type: biochemical; conditions: IC50 (uM), 0.4 ng/ml NANOLUC enzyme, final furimazine 10 uM (at Km)
Nluc [4] = target: T1, Nluc; experiment: Multiplex RealTime-Glo / Caspase-Glo 3/7 in DMEM media; assay type: biochemical; design: purchased Promega Corporation; conditions: for Avg (luminescence), 1 hour: RealTime-Glo reagent in DMEM + Caspase-Glo 3/7
Experimental: In a Corning 3570 assay plate, 1× REAL-TIME-GLO™ MT Cell Viability assay reagent was prepared in 40 μL DMEM media (n=3) and incubated overnight. Next, 40 μL of a titration of JRW-0147 or JRW-0344 (2× concentration in CASPASE-GLO® 3/7 Assay Reagent (Promega Corporation)) was added. The reactions were incubated at room temperature, and luminescence determined at 1 hour.

T1 sequence (Q9GV45 28-196 with tags or gaps with the stated changes limits assumed): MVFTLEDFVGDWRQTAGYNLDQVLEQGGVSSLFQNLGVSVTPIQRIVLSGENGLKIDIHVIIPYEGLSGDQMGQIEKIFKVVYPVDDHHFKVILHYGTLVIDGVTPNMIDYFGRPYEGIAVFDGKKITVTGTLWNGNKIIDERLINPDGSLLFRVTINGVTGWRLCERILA
Chain of NANOLUC® enzyme (Q9GV45 28-196 with tags or gaps with the stated changes limits assumed): as above

CCN(C(=O)Cn1c(C(=O)N[C@H]2CC[C@H](C(=O)NCCCCCC(=O)O)CC2)cc2sccc21)c1cccc(C)c1 [JRW-0147, 6-(trans-4-(4-(2-(ethyl(m-tolyl)amino)-2-oxoethyl)-4H-thieno[3,2-b]pyrrole-5-carboxamido)cyclohexane-1-carboxamido)hexanoic acid]
Cell permeability, EC50 in Live vs Lytic cells (FIGS. 17A-17C) [1]: cell impermeable characterized by right shifted EC50 in Live vs. Lytic cells
Caspase, Avg (luminescence) (Nluc [2]; Inhibitor 1.73 μM): 15580
Caspase, Avg (luminescence) (Nluc [2]; Inhibitor 2.60 μM): 11677
Caspase, Avg (luminescence) (Nluc [2]; Inhibitor 3.90 μM): 9790
Caspase, Avg (luminescence) (Nluc [2]; Inhibitor 5.85 μM): 8013
Caspase, Avg (luminescence) (Nluc [2]; Inhibitor 8.78 μM): 7125
Caspase, Avg (luminescence) (Nluc [2]; Inhibitor 13.17 μM): 5545
Caspase, Avg (luminescence) (Nluc [2]; Inhibitor 19.75 μM): 5302
Caspase, Avg (luminescence) (Nluc [2]; Inhibitor 29.63 μM): 4394
Caspase, Avg (luminescence) (Nluc [2]; Inhibitor 44.44 μM): 4367
Caspase, Avg (luminescence) (Nluc [2]; Inhibitor 66.67 μM): 3427
Caspase, Avg (luminescence) (Nluc [2]; Inhibitor 100 μM): 3389
Inhibition of firefly luciferase activity (Table 3) (UltraGlo luciferase): did not inhibit the firefly luciferase activity
UltraGlo luciferase, Avg (luminescence) (UltraGlo luciferase; [cmpd] 0.1953125 μM): 85561
UltraGlo luciferase, S/B (UltraGlo luciferase; [cmpd] 0.1953125 μM): 0.99
UltraGlo luciferase, Avg (luminescence) (UltraGlo luciferase; [cmpd] 0.390625 μM): 84087
UltraGlo luciferase, S/B (UltraGlo luciferase; [cmpd] 0.390625 μM): 0.97
UltraGlo luciferase, Avg (luminescence) (UltraGlo luciferase; [cmpd] 0.78125 μM): 84072
UltraGlo luciferase, S/B (UltraGlo luciferase; [cmpd] 0.78125 μM): 0.97
UltraGlo luciferase, Avg (luminescence) (UltraGlo luciferase; [cmpd] 1.5625 μM): 83668
UltraGlo luciferase, S/B (UltraGlo luciferase; [cmpd] 1.5625 μM): 0.97
UltraGlo luciferase, Avg (luminescence) (UltraGlo luciferase; [cmpd] 3.125 μM): 82252
UltraGlo luciferase, S/B (UltraGlo luciferase; [cmpd] 3.125 μM): 0.95
UltraGlo luciferase, Avg (luminescence) (UltraGlo luciferase; [cmpd] 6.25 μM): 83282
UltraGlo luciferase, S/B (UltraGlo luciferase; [cmpd] 6.25 μM): 0.97
UltraGlo luciferase, Avg (luminescence) (UltraGlo luciferase; [cmpd] 12.5 μM): 83291
UltraGlo luciferase, S/B (UltraGlo luciferase; [cmpd] 12.5 μM): 0.97
UltraGlo luciferase, Avg (luminescence) (UltraGlo luciferase; [cmpd] 25 μM): 84033
UltraGlo luciferase, S/B (UltraGlo luciferase; [cmpd] 25 μM): 0.97
UltraGlo luciferase, Avg (luminescence) (UltraGlo luciferase; [cmpd] 50 μM): 81106
UltraGlo luciferase, S/B (UltraGlo luciferase; [cmpd] 50 μM): 0.94
UltraGlo luciferase, Avg (luminescence) (UltraGlo luciferase; [cmpd] 100 μM): 80636
UltraGlo luciferase, S/B (UltraGlo luciferase; [cmpd] 100 μM): 0.93
UltraGlo luciferase, Avg (luminescence) (UltraGlo luciferase; [cmpd] 200 μM): 78035
UltraGlo luciferase, S/B (UltraGlo luciferase; [cmpd] 200 μM): 0.90
Inhibition of Nluc oriented extracellularly / intracellularly by imaging (FIG. 19) [3]: inhibit the classic ring-like structure, but not when Nluc is orientated intracellularly
IC50 (NANOLUC® enzyme): 0.094 µM
S/B, 1 hour (Nluc [4]; [cmpd] final 0.09765625 μM): 0.84
Avg (luminescence), 1 hour (Nluc [4]; [cmpd] final 0.09765625 μM): 117067
S/B, 1 hour (Nluc [4]; [cmpd] final 0.1953125 μM): 0.89
Avg (luminescence), 1 hour (Nluc [4]; [cmpd] final 0.1953125 μM): 124500
S/B, 1 hour (Nluc [4]; [cmpd] final 0.390625 μM): 0.85
Avg (luminescence), 1 hour (Nluc [4]; [cmpd] final 0.390625 μM): 117833
S/B, 1 hour (Nluc [4]; [cmpd] final 0.78125 μM): 0.77
Avg (luminescence), 1 hour (Nluc [4]; [cmpd] final 0.78125 μM): 106867
S/B, 1 hour (Nluc [4]; [cmpd] final 1.5625 μM): 0.47
Avg (luminescence), 1 hour (Nluc [4]; [cmpd] final 1.5625 μM): 65173
S/B, 1 hour (Nluc [4]; [cmpd] final 3.125 μM): 0.32
Avg (luminescence), 1 hour (Nluc [4]; [cmpd] final 3.125 μM): 45167
S/B, 1 hour (Nluc [4]; [cmpd] final 6.25 μM): 0.20
Avg (luminescence), 1 hour (Nluc [4]; [cmpd] final 6.25 μM): 27817
S/B, 1 hour (Nluc [4]; [cmpd] final 12.5 μM): 0.12
Avg (luminescence), 1 hour (Nluc [4]; [cmpd] final 12.5 μM): 17293
S/B, 1 hour (Nluc [4]; [cmpd] final 25 μM): 0.08
Avg (luminescence), 1 hour (Nluc [4]; [cmpd] final 25 μM): 10699
S/B, 1 hour (Nluc [4]; [cmpd] final 50 μM): 0.06
Avg (luminescence), 1 hour (Nluc [4]; [cmpd] final 50 μM): 8136
S/B, 1 hour (Nluc [4]; [cmpd] final 100 μM): 0.05
Avg (luminescence), 1 hour (Nluc [4]; [cmpd] final 100 μM): 6568

From patent US10513694B2, “Thienopyrrole compounds and uses thereof” (PROMEGA CORPORATION, priority 2015, dated 2019)
